What was measured:
[1] = system: testis-derived Brdt; test: JQ1 inhibition of Brdt binding to H4 peptides; set-up: species or system mouse; settings: JQ1 added to extract prior to peptide pull-down; Figure 6C lower left
[2] = system: histone octamers / chromatin (H4K5 and H4K8); settings: [14C] butyryl-CoA, in vitro; ref Chen et al., 2007; cited from earlier work

Molecule	inhibition of Brdt binding to H4K5acK8bu peptide [1]	inhibition of Brdt binding to acetylated H4 peptide [1]	lysine butyrylation of core histones [2]
Cc1sc2c(c1C)C(c1ccc(Cl)cc1)=N[C@@H](CC(=O)OC(C)(C)C)c1nnc(C)n1-2 [JQ1]	abolished the binding	abolished the binding	–
CREB binding protein (CBP): histone acyltransferase	–	–	can catalyze lysine butyrylation
p300: Flag tagged human p300 (324-2094), recombinant from baculovirus-infected insect cells	–	–	can catalyze lysine butyrylation

— PMC4850424 (Molecular Cell, 2016)
